Test results taken from paper PMC11187573, “Identification of SARS-CoV-2 Mpro inhibitors through deep reinforcement learning for de novo drug design and computational chemistry approaches” (RSC Medicinal Chemistry, 2024).
pIC50: −log10 of the molar value.

Key:
SARS-CoV-2 main protease [1] = details: cited from earlier work; for pIC50: Docking_validation.csv, ref COVID Moonshot, read-out: f_avg_IC50; for f_avg_pIC50: Covid_Moonshot_activity_data.csv, ref COVID Moonshot (covid.postera.ai)
[2] = system: SARS, SARS-CoV-2 and MERS Mpro; details: Origin COVID_Moonshot; ref COVID Moonshot; cited from earlier work
Mpro = details: ML dataset, Origin COVID_Moonshot; ref COVID Moonshot; cited from earlier work
[3] = biological target: recombinant SARS-CoV-2 main protease Mpro (Severe acute respiratory syndrome coronavirus 2, UniProt P0DTC1); assay: FRET-based Mpro proteolytic activity assay; type: biochemical; details: for pIC50: Mpro FRET (1 μM DTT)
SARS-CoV-2 main protease [4] = type: biochemical; details: Docking validation set, class assigned from COVID Moonshot IC50
human Cathepsin L = human Cathepsin L (Homo sapiens, UniProt P07711); assay: Fluorimetric human liver Cathepsin L (hCatL) activity assay; type: biochemical; details: reference inhibitor
trypsin = system: trypsin; design: method as in COVID Moonshot; details: Docking_validation.csv; ref COVID Moonshot; read-out: trypsin_IC50; cited from earlier work
[5] = system: host–cell proteases, such as cathepsin L; design: method as in PMID 34726479, PMID 35352927, PMID 33158912; details: cited from earlier work

Chain of human Cathepsin L (P07711 114-333 limits assumed): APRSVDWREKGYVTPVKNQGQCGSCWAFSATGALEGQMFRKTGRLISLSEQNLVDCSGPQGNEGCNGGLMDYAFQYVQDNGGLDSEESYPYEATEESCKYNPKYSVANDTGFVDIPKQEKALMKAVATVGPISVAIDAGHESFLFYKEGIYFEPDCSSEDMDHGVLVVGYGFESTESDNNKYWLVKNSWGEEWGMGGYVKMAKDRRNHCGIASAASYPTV

**Q.** With O=S(=O)(Cc1ccccc1F)c1oc(-c2ccc(F)cc2)nc1S(=O)(=O)c1ccccc1 [LON-WEI-4d77710c-2, O=S(=O)(Cc1ccccc1F)c1oc(-c2ccc(F)cc2)nc1S(=O)(=O)c1ccccc1] as the molecule, how does the pIC50 (SARS-CoV-2 main protease [1]) read?
**A.** 6.40

**Q.** What about the pIC50 [2] of the same molecule?
**A.** 6.40

**Q.** And the pIC50 (Mpro)?
**A.** 6.60

**Q.** With Cc1cncc(CC(=O)N2CCC[C@H]2c2cccc(Cl)c2)c1 [Compound 7, (S)-1-(2-(3-chlorophenyl)pyrrolidin-1-yl)-2-(5-methylpyridin-3-yl)ethan-1-one] as the molecule, how does the pIC50 [3] read?
**A.** 5.25

**Q.** With O=C(Nc1cncc2ccccc12)C1=CCCc2ccc(Cl)cc21 [MAT-POS-0c8fa4a7-1, O=C(Nc1cncc2ccccc12)C1=CCCc2ccc(Cl)cc21] as the molecule, how does the pIC50 (SARS-CoV-2 main protease [1]) read?
**A.** 6.63

**Q.** And the pIC50 [2]?
**A.** 6.63

**Q.** What about the pIC50 (Mpro) of the same molecule?
**A.** 6.80

**Q.** With COC[C@]1(C(=O)Nc2cncc3ccccc23)CCOc2cc(Cl)c(Cl)cc21 [MAT-POS-932d1078-4, COC[C@]1(C(=O)Nc2cncc3ccccc23)CCOc2cc(Cl)c(Cl)cc21] as the molecule, how does the f_avg_pIC50 (SARS-CoV-2 main protease [1]) read?
**A.** 5.492

**Q.** With CCOC(=O)c1c(C)n(S(C)(=O)=O)c2ccc(N(C(=O)c3ccco3)S(C)(=O)=O)cc12 [LON-WEI-4d77710c-8, CCOC(=O)c1c(C)n(S(C)(=O)=O)c2ccc(N(C(=O)c3ccco3)S(C)(=O)=O)cc12] as the molecule, how does the pIC50 (SARS-CoV-2 main protease [1]) read?
**A.** 6.55

**Q.** And the pIC50 [2]?
**A.** 6.55

**Q.** And the pIC50 (Mpro)?
**A.** 6.67

**Q.** Which results are given for COc1ccc(Cl)cc1OCCNC(=O)c1cc(=O)[nH]c2cccc(OC)c12 [MAT-POS-3b536971-1, COc1ccc(Cl)cc1OCCNC(=O)c1cc(=O)[nH]c2cccc(OC)c12]?
**A.** pIC50 (SARS-CoV-2 main protease [1]): 6.06; pIC50 [2]: 6.06

**Q.** With O=C1CC(Oc2cc(Cl)cc(CC(=O)Nn3cnc4ccccc43)c2)N1 (stereo not drawn) [MAT-POS-c478e61b-1, O=C1CC(Oc2cc(Cl)cc(CC(=O)Nn3cnc4ccccc43)c2)N1] as the molecule, how does the “label (active / inactive)” value (SARS-CoV-2 main protease [4]) read?
**A.** inactive

**Q.** What about the pIC50 (SARS-CoV-2 main protease [1]) of the same molecule?
**A.** 4.09

**Q.** And the pIC50 (Mpro)?
**A.** 4.04

**Q.** With CCn1cncc1NC(=O)C1c2cc(Cl)cc(Cl)c2OCC1C (stereo not drawn) [Compound 21, 6,8-dichloro-N-(1-ethyl-1H-imidazol-5-yl)-3-methylchromane-4-carboxamide] as the molecule, how does the pIC50 [3] read?
**A.** 4.17

**Q.** With CC(=O)N[C@@H](CC(C)C)C(=O)N[C@@H](CC(C)C)C(=O)N[C@H](C=O)CCCNC(=N)N [Leupeptin] as the molecule, how does the pIC50 (human Cathepsin L) read?
**A.** ~8.70

**Q.** With O=C(Oc1cncc(Cl)c1)c1cccc2[nH]ccc12 [ALP-POS-c59291d4-5, O=C(Oc1cncc(Cl)c1)c1cccc2[nH]ccc12] as the molecule, how does the pIC50 (trypsin) read?
**A.** 4.00

**Q.** With Cc1ccncc1NC(=O)N(C)c1cccc(Cl)c1 [EDG-MED-0da5ad92-3, Cc1ccncc1NC(=O)N(C)c1cccc(Cl)c1] as the molecule, how does the “label (active / inactive)” value (SARS-CoV-2 main protease [4]) read?
**A.** inactive

**Q.** With O=C(Nc1nncn1C1CC1)C1CCOc2c(F)cccc21 (stereo not drawn) [BRU-THA-a358fbdd-7, O=C(Nc1nncn1C1CC1)C1CCOc2c(F)cccc21] as the molecule, how does the “label (active / inactive)” value (SARS-CoV-2 main protease [4]) read?
**A.** inactive

**Q.** With O=C(Cc1cccc(Cl)c1)Nc1cnnc2ccccc12 [EDJ-MED-50fe53e8-2, O=C(Cc1cccc(Cl)c1)Nc1cnnc2ccccc12] as the molecule, how does the “label (active / inactive)” value (SARS-CoV-2 main protease [4]) read?
**A.** inactive

**Q.** Which “label (active / inactive)” value (SARS-CoV-2 main protease [4]) does the source give for O=C(Nc1cccnc1)N(CCN1CCOCC1)c1cccc(Cl)c1 [JOR-UNI-2fc98d0b-6, O=C(Nc1cccnc1)N(CCN1CCOCC1)c1cccc(Cl)c1] here?
**A.** inactive

**Q.** For Cc1[nH]c2ncnc(NC(=O)c3cc4ccccc4c(=O)o3)c2c1C [COM-UCB-8c7d23dc-12, Cc1[nH]c2ncnc(NC(=O)c3cc4ccccc4c(=O)o3)c2c1C], which “label (active / inactive)” value (SARS-CoV-2 main protease [4]) is on record?
**A.** inactive

**Q.** With Cc1ccncc1CC(=O)Nc1cccc2c1CNCC2 [ADA-UCB-6c2cb422-3, Cc1ccncc1CC(=O)Nc1cccc2c1CNCC2] as the molecule, how does the “label (active / inactive)” value (SARS-CoV-2 main protease [4]) read?
**A.** inactive

**Q.** With Cc1cncc(CC(=O)N2CCc3cc(Cl)c(Cl)cc3C2)c1 [Compound 12, 1-(6,7-dichloro-3,4-dihydroisoquinolin-2(1H)-yl)-2-(5-methylpyridin-3-yl)ethan-1-one] as the molecule, how does the pIC50 [3] read?
**A.** 5.64

**Q.** And the “fold improvement of Mpro FRET IC50 after first round of optimization” value ([3]; relative to the parent hit (compound 8 or 10))?
**A.** 27 fold

**Q.** What does the source list for O=C(Nc1cncc2ccccc12)C1COc2ccc(Cl)cc21 (stereo not drawn) [MAT-POS-f7918075-2, O=C(Nc1cncc2ccccc12)C1COc2ccc(Cl)cc21]?
**A.** pIC50 (SARS-CoV-2 main protease [1]): 6.12; pIC50 [2]: 5.58

**Q.** For COC[C@@]1(C(=O)Nc2cncc3ccccc23)CCOc2cc(Cl)c(Cl)cc21 [MAT-POS-932d1078-5, COC[C@@]1(C(=O)Nc2cncc3ccccc23)CCOc2cc(Cl)c(Cl)cc21], which f_avg_pIC50 (SARS-CoV-2 main protease [1]) is on record?
**A.** 4.772

**Q.** For Nirmatrelvir–ritonavir, which “inhibitory activity against host–cell proteases, such as cathepsin L” value [5] is on record?
**A.** no inhibitory activity

**Q.** With Cn1cnc(Cn2c(=O)[nH]/c(=N\c3cc4cn(C)nc4cc3Cl)n(Cc3cc(F)c(F)cc3F)c2=O)n1 [ensitrelvir] as the molecule, how does the “inhibitory activity against host–cell proteases, such as cathepsin L” value [5] read?
**A.** no inhibitory activity

**Q.** With N#Cc1cnn(C(=O)c2cccs2)c1C1CC1 [LON-WEI-4d77710c-70, N#Cc1cnn(C(=O)c2cccs2)c1C1CC1] as the molecule, how does the pIC50 (SARS-CoV-2 main protease [1]) read?
**A.** 5.49

**Q.** And the pIC50 [2]?
**A.** 5.49

**Q.** What about the pIC50 (Mpro) of the same molecule?
**A.** 5.74

**Q.** Which results are given for Cc1ccncc1NC(=O)Cc1cncc(Cl)c1 [TRY-UNI-2eddb1ff-2, Cc1ccncc1NC(=O)Cc1cncc(Cl)c1]?
**A.** label (active / inactive) (SARS-CoV-2 main protease [4]): inactive; pIC50 (SARS-CoV-2 main protease [1]): 4.33; pIC50 (trypsin): 4.00

**Q.** For O=C(c1cc(=O)[nH]c2ccc(F)cc12)N1CCN(S(=O)(=O)c2cccc(Cl)c2)CC1 [MAT-POS-590ac91e-69, O=C(c1cc(=O)[nH]c2ccc(F)cc12)N1CCN(S(=O)(=O)c2cccc(Cl)c2)CC1], which “label (active / inactive)” value (SARS-CoV-2 main protease [4]) is on record?
**A.** inactive

**Q.** With c1ccc(-c2cc(Sc3nnc(-c4cccs4)o3)n3ncnc3n2)cc1 [LON-WEI-4d77710c-76, c1ccc(-c2cc(Sc3nnc(-c4cccs4)o3)n3ncnc3n2)cc1] as the molecule, how does the pIC50 (SARS-CoV-2 main protease [1]) read?
**A.** 6.66

**Q.** And the pIC50 [2]?
**A.** 6.66

**Q.** And the pIC50 (Mpro)?
**A.** 6.73

**Q.** With O=C(NCC1(C(=O)Nc2cncc3ccccc23)CCOc2ccc(Cl)cc21)C1COCCN1CC(F)(F)F (stereo not drawn) [MAT-POS-932d1078-1, O=C(NCC1(C(=O)Nc2cncc3ccccc23)CCOc2ccc(Cl)cc21)C1COCCN1CC(F)(F)F] as the molecule, how does the f_avg_pIC50 (SARS-CoV-2 main protease [1]) read?
**A.** 4.666

**Q.** Which “label (active / inactive)” value (SARS-CoV-2 main protease [4]) does the source give for O=C(Cc1cccc(Cl)c1)Nn1cnc2ccccc2c1=O [JAN-GHE-5a013bed-3, O=C(Cc1cccc(Cl)c1)Nn1cnc2ccccc2c1=O] here?
**A.** inactive

**Q.** What about the pIC50 (SARS-CoV-2 main protease [1]) of the same molecule?
**A.** 5.06

**Q.** And the pIC50 (trypsin)?
**A.** 4.00

**Q.** With CC(=O)N1CCN(CC(=O)Nc2cnccc2C)CC1 [BEN-DND-93268d01-8, CC(=O)N1CCN(CC(=O)Nc2cnccc2C)CC1] as the molecule, how does the “label (active / inactive)” value (SARS-CoV-2 main protease [4]) read?
**A.** inactive

**Q.** With O=C(Nc1cccc(C(F)(F)F)c1)Nc1ccccc1Sc1ncc([N+](=O)[O-])s1 [LON-WEI-4d77710c-69, O=C(Nc1cccc(C(F)(F)F)c1)Nc1ccccc1Sc1ncc([N+](=O)[O-])s1] as the molecule, how does the pIC50 (SARS-CoV-2 main protease [1]) read?
**A.** 5.20
